Assay results published in patent US12435044B2, “Pyridazinone herbicides and pyridazinone intermediates used to prepare a herbicide” (FMC Corporation, priority 2018, dated 2025).

Key:
Test in all cases: Test C pre-/postemergence greenhouse test
Assay type in all cases: in vivo
Settings in all cases: scale 0 to 100
[1] = test system: surinam grass (Brachiaria decumbens)
From the text: (§1) Seeds of plant species selected from blackgrass (Alopecurus myosuroides), ryegrass, Italian (Lolium multiflorum), wheat, winter (winter wheat, Triticum aestivum), galium (catchweed bedstraw, Galium aparine), corn (Zea mays), crabgrass, large (Digitaria sanguinalis), foxtail, giant (Setaria faberii), johnsongrass (Sorghum halepense), lambsquarters (Chenopodium album), morningglory (Ipomoea coccinea), nutsedge, yellow (Cyperus esculentus), pigweed (Amaranthus retroflexus), ragweed (common ragweed, Ambrosia elatior), soybean (Glycine max), barnyardgrass (Echinochloa crus-galli), oilseed rape (Brassica napus), waterhemp (common waterhemp, Amaranthus rudis), pigweed, palmer (Amaranthus palmeri), kochia (Kochia scoparia), oat, wild (Avena fatua), surinam grass (Brachiaria decumbens), windgrass (Apera spica-venti), poinsettia, wild (Euphorbia heterophylla) and velvetleaf (Abutilon theophrasti) were planted into a silt loam soil and treated preemergence with test chemicals formulated in a non-phytotoxic solvent mixture which included a surfactant.
(§2) At the same time, plants selected from these crop and weed species and also chickweed (common chickweed, Stellaria media), buckwheat, wild (Polygonum convolvulus), mustard, wild (Sinapis arvensis), field poppy (Papaver rhoeas), field violet (Viola arvensis), nightshade (eastern black nightshade, Solanum ptycanthum), speedwell (bird's-eye speedwell, Veronica persica), horseweed (Conyza canadensis), cutleaf geranium (Geranium dissectum), and Canada thistle (Cirsium arvense) were planted in pots containing Redi-Earth® planting medium (Scotts Company, 14111 Scottslawn Road, Marysville, Ohio 43041) comprising spaghnum peat moss, vermiculite, wetting agent and starter nutrients and treated with postemergence applications of test chemicals formulated in the same manner. Plants ranged in height from 2 to 18 cm (1- to 4-leaf stage) for postemergence treatments. Treated plants and controls were maintained in a greenhouse for 13 to 21 d, after which time all species were compared to controls and visually evaluated. Plant response ratings, summarized in Table C-1 (postemergence) and C-2 (preemergence), are based on a scale of 0 to 100 where 0 is no effect and 100 is complete control. A dash (-) response means no test result.

corn (Zea mays) = test system: corn (Zea mays)
From the text: as §1, §2

[2] = test system: blackgrass (Alopecurus myosuroides)
From the text: as §1, §2

oat, wild (Avena fatua) = test system: oat, wild (Avena fatua)
From the text: as §1, §2

[3] = test system: ryegrass, Italian (Lolium multiflorum)
From the text: as §1, §2

[4] = test system: crabgrass, large (Digitaria sanguinalis)
From the text: as §1, §2

[5] = test system: foxtail, giant (Setaria faberii)
From the text: as §1, §2

[6] = test system: pigweed, palmer (Amaranthus palmeri)
From the text: as §1, §2

kochia (Kochia scoparia) = test system: kochia (Kochia scoparia)
From the text: as §1, §2

[7] = test system: windgrass (Apera spica-venti)
From the text: as §1, §2

[8] = test system: ragweed (common ragweed, Ambrosia elatior)
From the text: as §1, §2

[9] = test system: johnsongrass (Sorghum halepense)
From the text: as §1, §2

[10] = test system: lambsquarters (Chenopodium album)
From the text: as §1, §2

[11] = test system: morningglory (Ipomoea coccinea)
From the text: as §1, §2

SMILES: Cc1ccc2ccc(Cl)cc2c1-c1c(O)c(Cl)nn(C)c1=O [Cpd. No. 22]
- Plant response rating, Surinam Grass ([1]; Postemergence, 16 g ai/ha): 80
- Plant response rating, Surinam Grass ([1]; Postemergence, 31 g ai/ha): 85
- Plant response rating, Surinam Grass ([1]; Postemergence, 62 g ai/ha): 95
- Plant response rating, Surinam Grass ([1]; Postemergence, 125 g ai/ha): 95
- Plant response rating, Surinam Grass ([1]; Preemergence, 31 g ai/ha): 90
- Plant response rating, Surinam Grass ([1]; Preemergence, 61 g ai/ha): 75
- Plant response rating, Surinam Grass ([1]; Preemergence, 62 g ai/ha): 95
- Plant response rating, Surinam Grass ([1]; Preemergence, 125 g ai/ha): 100
- Plant response rating, Corn (corn (Zea mays); Postemergence, 16 g ai/ha): 0
- Plant response rating, Corn (corn (Zea mays); Postemergence, 31 g ai/ha): 20
- Plant response rating, Corn (corn (Zea mays); Postemergence, 62 g ai/ha): 35
- Plant response rating, Corn (corn (Zea mays); Postemergence, 125 g ai/ha): 25
- Plant response rating, Corn (corn (Zea mays); Preemergence, 31 g ai/ha): 10
- Plant response rating, Corn (corn (Zea mays); Preemergence, 61 g ai/ha): 5
- Plant response rating, Corn (corn (Zea mays); Preemergence, 62 g ai/ha): 5
- Plant response rating, Corn (corn (Zea mays); Preemergence, 125 g ai/ha): 30
- Plant response rating, Blackgrass ([2]; Postemergence, 16 g ai/ha): 70
- Plant response rating, Blackgrass ([2]; Postemergence, 31 g ai/ha): 85
- Plant response rating, Blackgrass ([2]; Postemergence, 62 g ai/ha): 90
- Plant response rating, Blackgrass ([2]; Postemergence, 125 g ai/ha): 100
- Plant response rating, Blackgrass ([2]; Preemergence, 31 g ai/ha): 25
- Plant response rating, Blackgrass ([2]; Preemergence, 61 g ai/ha): 5
- Plant response rating, Blackgrass ([2]; Preemergence, 62 g ai/ha): 30
- Plant response rating, Blackgrass ([2]; Preemergence, 125 g ai/ha): 85
- Plant response rating, Oat, Wild (oat, wild (Avena fatua); Postemergence, 16 g ai/ha): 98
- Plant response rating, Oat, Wild (oat, wild (Avena fatua); Postemergence, 31 g ai/ha): 100
- Plant response rating, Oat, Wild (oat, wild (Avena fatua); Postemergence, 62 g ai/ha): 100
- Plant response rating, Oat, Wild (oat, wild (Avena fatua); Postemergence, 125 g ai/ha): 100
- Plant response rating, Oat, Wild (oat, wild (Avena fatua); Preemergence, 31 g ai/ha): 30
- Plant response rating, Oat, Wild (oat, wild (Avena fatua); Preemergence, 61 g ai/ha): 0
- Plant response rating, Oat, Wild (oat, wild (Avena fatua); Preemergence, 62 g ai/ha): 45
- Plant response rating, Oat, Wild (oat, wild (Avena fatua); Preemergence, 125 g ai/ha): 95
- Plant response rating, Ryegrass, Italian ([3]; Postemergence, 16 g ai/ha): 70
- Plant response rating, Ryegrass, Italian ([3]; Postemergence, 31 g ai/ha): 85
- Plant response rating, Ryegrass, Italian ([3]; Postemergence, 62 g ai/ha): 95
- Plant response rating, Ryegrass, Italian ([3]; Postemergence, 125 g ai/ha): 100
- Plant response rating, Ryegrass, Italian ([3]; Preemergence, 31 g ai/ha): 25
- Plant response rating, Ryegrass, Italian ([3]; Preemergence, 61 g ai/ha): 5
- Plant response rating, Ryegrass, Italian ([3]; Preemergence, 62 g ai/ha): 98
- Plant response rating, Ryegrass, Italian ([3]; Preemergence, 125 g ai/ha): 90
- Plant response rating, Crabgrass, Large ([4]; Postemergence, 16 g ai/ha): 10
- Plant response rating, Crabgrass, Large ([4]; Postemergence, 31 g ai/ha): 25
- Plant response rating, Crabgrass, Large ([4]; Postemergence, 62 g ai/ha): 15
- Plant response rating, Crabgrass, Large ([4]; Postemergence, 125 g ai/ha): 60
- Plant response rating, Crabgrass, Large ([4]; Preemergence, 31 g ai/ha): 25
- Plant response rating, Crabgrass, Large ([4]; Preemergence, 61 g ai/ha): 5
- Plant response rating, Crabgrass, Large ([4]; Preemergence, 62 g ai/ha): 75
- Plant response rating, Crabgrass, Large ([4]; Preemergence, 125 g ai/ha): 85
- Plant response rating, Foxtail, Giant ([5]; Postemergence, 16 g ai/ha): 85
- Plant response rating, Foxtail, Giant ([5]; Postemergence, 31 g ai/ha): 90
- Plant response rating, Foxtail, Giant ([5]; Postemergence, 62 g ai/ha): 95
- Plant response rating, Foxtail, Giant ([5]; Postemergence, 125 g ai/ha): 98
- Plant response rating, Foxtail, Giant ([5]; Preemergence, 31 g ai/ha): 80
- Plant response rating, Foxtail, Giant ([5]; Preemergence, 61 g ai/ha): 0
- Plant response rating, Foxtail, Giant ([5]; Preemergence, 62 g ai/ha): 100
- Plant response rating, Foxtail, Giant ([5]; Preemergence, 125 g ai/ha): 100
- Plant response rating, Pigweed, Palmer ([6]; Postemergence, 16 g ai/ha): 50
- Plant response rating, Pigweed, Palmer ([6]; Postemergence, 31 g ai/ha): 70
- Plant response rating, Pigweed, Palmer ([6]; Postemergence, 62 g ai/ha): 70
- Plant response rating, Pigweed, Palmer ([6]; Postemergence, 125 g ai/ha): 75
- Plant response rating, Pigweed, Palmer ([6]; Preemergence, 31 g ai/ha): 65
- Plant response rating, Pigweed, Palmer ([6]; Preemergence, 61 g ai/ha): 40
- Plant response rating, Pigweed, Palmer ([6]; Preemergence, 62 g ai/ha): 75
- Plant response rating, Pigweed, Palmer ([6]; Preemergence, 125 g ai/ha): 100
- Plant response rating, Kochia (kochia (Kochia scoparia); Postemergence, 16 g ai/ha): 25
- Plant response rating, Kochia (kochia (Kochia scoparia); Postemergence, 31 g ai/ha): 35
- Plant response rating, Kochia (kochia (Kochia scoparia); Postemergence, 62 g ai/ha): 65
- Plant response rating, Kochia (kochia (Kochia scoparia); Postemergence, 125 g ai/ha): 70
- Plant response rating, Kochia (kochia (Kochia scoparia); Preemergence, 31 g ai/ha): 5
- Plant response rating, Kochia (kochia (Kochia scoparia); Preemergence, 61 g ai/ha): 0
- Plant response rating, Kochia (kochia (Kochia scoparia); Preemergence, 62 g ai/ha): 80
- Plant response rating, Kochia (kochia (Kochia scoparia); Preemergence, 125 g ai/ha): 95
- Plant response rating, Windgrass ([7]; Postemergence, 16 g ai/ha): 85
- Plant response rating, Windgrass ([7]; Postemergence, 31 g ai/ha): 85
- Plant response rating, Windgrass ([7]; Postemergence, 62 g ai/ha): 100
- Plant response rating, Windgrass ([7]; Postemergence, 125 g ai/ha): 100
- Plant response rating, Windgrass ([7]; Preemergence, 31 g ai/ha): 80
- Plant response rating, Windgrass ([7]; Preemergence, 61 g ai/ha): 0
- Plant response rating, Windgrass ([7]; Preemergence, 62 g ai/ha): 85
- Plant response rating, Windgrass ([7]; Preemergence, 125 g ai/ha): 100
- Plant response rating, Ragweed ([8]; Postemergence, 16 g ai/ha): 90
- Plant response rating, Ragweed ([8]; Postemergence, 31 g ai/ha): 95
- Plant response rating, Ragweed ([8]; Postemergence, 62 g ai/ha): 100
- Plant response rating, Ragweed ([8]; Postemergence, 125 g ai/ha): 100
- Plant response rating, Ragweed ([8]; Preemergence, 31 g ai/ha): 60
- Plant response rating, Ragweed ([8]; Preemergence, 61 g ai/ha): 60
- Plant response rating, Ragweed ([8]; Preemergence, 62 g ai/ha): 90
- Plant response rating, Ragweed ([8]; Preemergence, 125 g ai/ha): 100
- Plant response rating, Johnsongrass ([9]; Postemergence, 16 g ai/ha): 20
- Plant response rating, Johnsongrass ([9]; Postemergence, 31 g ai/ha): 40
- Plant response rating, Johnsongrass ([9]; Postemergence, 62 g ai/ha): 50
- Plant response rating, Johnsongrass ([9]; Postemergence, 125 g ai/ha): 60
- Plant response rating, Johnsongrass ([9]; Preemergence, 31 g ai/ha): 30
- Plant response rating, Johnsongrass ([9]; Preemergence, 61 g ai/ha): 5
- Plant response rating, Johnsongrass ([9]; Preemergence, 62 g ai/ha): 50
- Plant response rating, Johnsongrass ([9]; Preemergence, 125 g ai/ha): 70
- Plant response rating, Lambsquarters ([10]; Postemergence, 16 g ai/ha): 80
- Plant response rating, Lambsquarters ([10]; Postemergence, 31 g ai/ha): 85
- Plant response rating, Lambsquarters ([10]; Postemergence, 62 g ai/ha): 100
- Plant response rating, Lambsquarters ([10]; Postemergence, 125 g ai/ha): 85
- Plant response rating, Lambsquarters ([10]; Preemergence, 31 g ai/ha): 75
- Plant response rating, Lambsquarters ([10]; Preemergence, 61 g ai/ha): 70
- Plant response rating, Lambsquarters ([10]; Preemergence, 62 g ai/ha): 90
- Plant response rating, Lambsquarters ([10]; Preemergence, 125 g ai/ha): 100
- Plant response rating, Morningglory ([11]; Postemergence, 16 g ai/ha): 85
- Plant response rating, Morningglory ([11]; Postemergence, 31 g ai/ha): 100
- Plant response rating, Morningglory ([11]; Postemergence, 62 g ai/ha): 100
- Plant response rating, Morningglory ([11]; Postemergence, 125 g ai/ha): 100
- Plant response rating, Morningglory ([11]; Preemergence, 31 g ai/ha): 35
- Plant response rating, Morningglory ([11]; Preemergence, 61 g ai/ha): 25
- Plant response rating, Morningglory ([11]; Preemergence, 125 g ai/ha): 85
